Where two headings read alike, the source gives them in different places.
How the values were obtained:
[1] = molecular target: GDP-bound KRAS wild-type protein (Homo sapiens, UniProt P01116); assay: Binding to KRAS by surface plasmon resonance (SPR), dissociation constant KD; details: Single Cycle Kinetics
Outline: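 Recombinant RAS proteins bearing a biotinylated Avi tag and loaded with GDP served as the captured ligand, recaptured fresh every cycle. Binding responses were referenced to an uncoated surface and a buffer-only blank cycle. Dissociation constants were obtained by 1:1 model fitting at 30°C.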

[2] = molecular target: GDP-bound NRAS wild-type protein (Homo sapiens, UniProt P01111); assay: Binding to NRAS by surface plasmon resonance (SPR), KD and KD ratio to KRAS
Sequence of GDP-bound NRAS wild-type protein (P01111 whole entry): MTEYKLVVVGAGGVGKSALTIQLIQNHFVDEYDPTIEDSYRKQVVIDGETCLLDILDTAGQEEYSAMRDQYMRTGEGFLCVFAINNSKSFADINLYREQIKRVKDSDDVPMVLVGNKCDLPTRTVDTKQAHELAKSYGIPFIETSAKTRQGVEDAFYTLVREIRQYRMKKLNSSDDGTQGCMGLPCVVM
Outline: (§1)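 Captured GDP-RAS (~100–300 RU) was exposed to increasing compound concentrations, 75 s per step, in running buffer with 10 µM GDP, 10 mM MgCl2 and 4% DMSO at pH 7.4.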

[3] = molecular target: HRAS wild-type protein (Homo sapiens, UniProt P01112); assay: Binding to HRAS by surface plasmon resonance (SPR), KD and KD ratio to KRAS
Sequence of HRAS wild-type protein (P01112 whole entry): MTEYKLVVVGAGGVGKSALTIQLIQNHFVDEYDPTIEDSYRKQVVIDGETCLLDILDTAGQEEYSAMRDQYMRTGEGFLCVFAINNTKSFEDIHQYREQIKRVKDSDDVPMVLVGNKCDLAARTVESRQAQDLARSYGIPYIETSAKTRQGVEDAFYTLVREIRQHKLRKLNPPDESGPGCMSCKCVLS
Outline: as §1

[4] = test system: human lung cancer strain NCI-H441; assay: NCI-H441 cell proliferation inhibitory activity (CellTiter-Glo, 4 days); assay type: cell-based; details: read-out: NCl-H441 IC50
Outline: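 Step one: dispense the test compound in serial DMSO dilutions. Step three: add the reagent and measure […].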

[5] = ratio of KD for GDP-bound NRAS wild-type protein to KD for KRAS
[6] = ratio of KD for HRAS wild-type protein to KD for KRAS
[7] = ratio of KD with respect to GDP-bound NRAS wild-type protein to KD with respect to KRAS
[8] = ratio of KD with respect to HRAS wild-type protein to KD with respect to KRAS
[9] = 50% proliferation inhibitory concentration, four days

Sequence of GDP-bound KRAS wild-type protein (P01116 1-188 isoform P01116-2): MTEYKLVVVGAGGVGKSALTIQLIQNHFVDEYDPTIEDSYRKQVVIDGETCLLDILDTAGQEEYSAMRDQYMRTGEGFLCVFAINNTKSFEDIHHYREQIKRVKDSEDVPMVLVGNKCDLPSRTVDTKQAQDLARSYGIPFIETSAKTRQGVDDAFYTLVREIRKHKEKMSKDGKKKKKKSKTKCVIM

SMILES | Kd [1] [nM] | NRAS /KRAS [2, 5] | HRAS /KRAS [3, 6] | IC50 ([4]; NCI-H441 cells, 4 days) [nM] | Kd ([1]; 1:1 binding model) [nM] | NRAS /KRAS [2, 7] | HRAS /KRAS [3, 8] | IC50 [4, 9] [nM]
C=CC[C@H]1C(=O)N(C)[C@H](C(=O)N(C)C)CC(=O)N(C)[C@@H](CCC)C(=O)N[C@@H]([C@@H](C)CC)C(=O)N(C)CC(=O)N(C)[C@H]2C/C=C\CCN(C2=O)[C@@H](Cc2ccc(C(F)(F)F)cc2)C(=O)N(C)CC(=O)N[C@@H](CCc2ccc(C(F)(F)F)c(OC)c2)C(=O)N2C[C@H](OCC)C[C@H]2C(=O)N(C)C2(CCC2)C(=O)N1C [PP3330] | 1.1 | A (a compound having 10 or more and less than 20 is denoted as A) | A (a compound having 10 or more and less than 20 is denoted as A) | 80.4 |  |  |  | 
CCC[C@H]1C(=O)N[C@@H](C2CCCC2)C(=O)N(C)CC(=O)N(C)[C@H]2C/C=C\CCN(C2=O)[C@@H](Cc2ccc(C)cc2)C(=O)N(C)CC(=O)N[C@@H](CCc2ccc(C(F)(F)F)c(OC)c2)C(=O)N2CC3(CC3)C[C@H]2C(=O)N(C)C2(CCC2)C(=O)N(C)[C@@H](CC(C)(C)C)C(=O)N(C)[C@H](C(=O)N(C)C)CC(=O)N1C [PP3320] | 0.037 | B (a compound having 3 or more and less than 10 is denoted as B) | B (a compound having 3 or more and less than 10 is denoted as B) | 4.6 |  |  |  | 
CCC[C@H]1C(=O)N[C@@H]([C@@H](C)CC)C(=O)N(C)CC(=O)N(C)[C@H]2C/C=C\CCN(C2=O)[C@@H](Cc2ccc(C(F)(F)F)cc2)C(=O)N(C)CC(=O)N[C@@H](CCc2cc(F)c(C(F)(F)F)c(F)c2)C(=O)N2CC3(CC3)C[C@H]2C(=O)N(C)C2(CCC2)C(=O)N(C)[C@@H](C(CC)CC)C(=O)N(C)[C@H](C(=O)N(C)C)CC(=O)N1C [PP3357] | 0.82 | A (a compound having 10 or more and less than 20 is denoted as A) | A (a compound having 10 or more and less than 20 is denoted as A) | 8.4 |  |  |  | 
CCCCCC[C@H]1C(=O)N[C@@H]([C@@H](C)CC)C(=O)N(C)CC(=O)N(C)[C@H]2C/C=C\CCN(C2=O)[C@@H](Cc2ccc(C(F)(F)F)cc2)C(=O)N(C)CC(=O)N[C@@H](CCc2ccc(Cl)c(Cl)c2)C(=O)N2C[C@H](OCC)C[C@H]2C(=O)NC2(CCC2)C(=O)N(C)[C@@H](C2CCCC2)C(=O)N(C)[C@H](C(=O)N(C)C)CC(=O)N1C [PP1252] |  |  |  |  | 0.3 | AA (a compound having 20 or more is denoted as AA) | A (a compound having 10 or more and less than 20 is denoted as A) | 51.2
CCO[C@@H]1C[C@H]2C(=O)NC3(CCC3)C(=O)N(C)[C@@H](C3CCCC3)C(=O)N(C)[C@H](C(=O)N3CCC3)CC(=O)N(C)[C@@H](CC)C(=O)N[C@@H]([C@@H](C)CC)C(=O)N(C)CC(=O)N(C)[C@H]3C/C=C\CCN(C3=O)[C@@H](CC3CCCCC3)C(=O)N(C)CC(=O)N[C@@H](CCc3cc(F)c(C(F)(F)F)c(F)c3)C(=O)N2C1 [PP1445] |  |  |  |  | 0.27 | A (a compound having 10 or more and less than 20 is denoted as A) | A (a compound having 10 or more and less than 20 is denoted as A) | 92.8
CC[C@H](C)[C@@H]1NC(=O)[C@H](CC(C)C)N(C)C(=O)C[C@@H](C(=O)N(C)C)N(C)C(=O)[C@H](C2CCCC2)N(C)C(=O)C2(CCC2)NC(=O)[C@@H]2CCCN2C(=O)[C@H](CCc2cc(F)c(C(F)(F)F)c(F)c2)NC(=O)CN(C)C(=O)[C@H](Cc2ccc(C(F)(F)F)cc2)N2CC/C=C\C[C@@H](C2=O)N(C)C(=O)CN(C)C1=O [PP1272] |  |  |  |  | 0.11 | A (a compound having 10 or more and less than 20 is denoted as A) | A (a compound having 10 or more and less than 20 is denoted as A) | 24
C#CC[C@H]1C(=O)N[C@@H]([C@@H](C)CC)C(=O)N2CCC[C@H]2C(=O)N(C)[C@H]2C/C=C\CCN(C2=O)[C@@H](Cc2ccc(C(F)(F)F)cc2)C(=O)N(C)CC(=O)N[C@@H](CCc2cc(F)c(C(F)(F)F)c(F)c2)C(=O)N2C[C@H](OCC)C[C@H]2C(=O)N(C)C2(CCC2)C(=O)N(C)[C@@H](C2CCCC2)C(=O)N(C)[C@H](C(=O)N(C)C)CC(=O)N1C [PP3253] | 0.088 | A (a compound having 10 or more and less than 20 is denoted as A) | B (a compound having 3 or more and less than 10 is denoted as B) | 2.9 |  |  |  | 
CCO[C@@H]1C[C@H]2C(=O)NC3(CCC3)C(=O)N(C)[C@@H](C(CC)CC)C(=O)N(C)[C@H](C(=O)N3CCOCC3)CC(=O)N(C)[C@@H](CC(C)C)C(=O)N[C@@H]([C@@H](C)CC)C(=O)N(C)CC(=O)N(C)[C@H]3C/C=C\CCN(C3=O)[C@@H](Cc3ccc(C(F)(F)F)cc3)C(=O)N(C)CC(=O)N[C@@H](CCc3cc(F)c(C(F)(F)F)c(F)c3)C(=O)N2C1 [PP1287] |  |  |  |  | 0.56 | AA (a compound having 20 or more is denoted as AA) | A (a compound having 10 or more and less than 20 is denoted as A) | 49.7
